{
  "source": "ChEMBL document CHEMBL3885881",
  "about": "“DrugMatrix”",
  "organism": "Rattus norvegicus",
  "test": "DrugMatrix - Regimen: Daily Repeat",
  "type": "toxicity, organism-based, Sprague-Dawley",
  "parameters": "regimen Daily Repeat, gender Male, age 6-8 weeks",
  "conditions": "in vivo, po, route oral GAVAGE, vehicle 100 % WATER",
  "key": {"[1]": {"conditions": "0 mg/kg, 72 h, tissue Blood, dose level Control, time 3 day"}, "[2]": {"conditions": "0 mg/kg, 72 h, tissue Plasma, dose level Control, time 3 day"}, "[3]": {"conditions": "0 mg/kg, 120 h, tissue Blood, dose level Control, time 5 day"}, "[4]": {"conditions": "0 mg/kg, 120 h, tissue Plasma, dose level Control, time 5 day"}, "[5]": {"conditions": "1 mg/kg, 72 h, tissue Blood, dose level Low, time 3 day"}, "[6]": {"conditions": "1 mg/kg, 72 h, tissue Plasma, dose level Low, time 3 day"}},
  "data": [
    {"sequence": "THIMEROSAL", "values": [
      {"measurement": "ABSOLUTE BASOPHIL", "setting": "[1]", "value": 0, "unit": "CELLS/uL"},
      {"measurement": "ABSOLUTE EOSINOPHIL", "setting": "[1]", "value": 123.17, "unit": "CELLS/uL"},
      {"measurement": "ABSOLUTE MONOCYTE", "setting": "[1]", "value": 66.17, "unit": "CELLS/uL"},
      {"measurement": "ABSOLUTE SEGMENTED NEUTROPHIL", "setting": "[1]", "value": 1149.5, "unit": "CELLS/uL"},
      {"measurement": "BASOPHIL", "setting": "[1]", "value": 0, "unit": "%"},
      {"measurement": "EOSINOPHIL", "setting": "[1]", "value": 0.83, "unit": "%"},
      {"measurement": "ERYTHROCYTE COUNT", "setting": "[1]", "value": 5.26, "unit": "x10E6/uL"},
      {"measurement": "HEMATOCRIT", "setting": "[1]", "value": 33.07, "unit": "%"},
      {"measurement": "LEUKOCYTE COUNT", "setting": "[1]", "value": 14.02, "unit": "x10E3/uL"},
      {"measurement": "LYMPHOCYTE", "setting": "[1]", "value": 90.17, "unit": "%"},
      {"measurement": "MEAN CORPUSCULAR HEMOGLOBIN", "setting": "[1]", "value": 25.62, "unit": "pg"},
      {"measurement": "MEAN CORPUSCULAR HEMOGLOBIN CONCENTRATION", "setting": "[1]", "value": 40.65, "unit": "G/DL"},
      {"measurement": "MEAN CORPUSCULAR VOLUME", "setting": "[1]", "value": 63, "unit": "fL"},
      {"measurement": "MONOCYTE", "setting": "[1]", "value": 0.5, "unit": "%"},
      {"measurement": "NEUTROPHIL", "setting": "[1]", "value": 8.5, "unit": "%"},
      {"measurement": "NUCLEATED RED BLOOD CELLS", "setting": "[1]", "value": "0.17 /100WBC"},
      {"measurement": "PLATELET COUNT", "setting": "[1]", "value": 1142.83, "unit": "x10E3/uL"},
      {"measurement": "ALANINE AMINOTRANSFERASE", "setting": "[2]", "value": 45.17, "unit": "u/L"},
      {"measurement": "ALKALINE PHOSPHATASE", "setting": "[2]", "value": 340.17, "unit": "u/L"},
      {"measurement": "ASPARTATE AMINOTRANSFERASE", "setting": "[2]", "value": 77.33, "unit": "u/L"},
      {"measurement": "BLOOD UREA NITROGEN", "setting": "[2]", "value": 14.67, "unit": "mg/dL"},
      {"measurement": "CREATINE PHOSPHOKINASE", "setting": "[2]", "value": 263.67, "unit": "u/L"},
      {"measurement": "CREATININE", "setting": "[2]", "value": 0.15, "unit": "mg/dL"},
      {"measurement": "LACTATE DEHYDROGENASE", "setting": "[2]", "value": 230, "unit": "u/L"},
      {"measurement": "PHOSPHORUS", "setting": "[2]", "value": 11.8, "unit": "mg/dL"},
      {"measurement": "POTASSIUM", "setting": "[2]", "value": 5.91, "unit": "MEQ/L"},
      {"measurement": "TOTAL BILIRUBIN", "setting": "[2]", "value": 0.22, "unit": "mg/dL"},
      {"measurement": "TOTAL PROTEIN", "setting": "[2]", "value": 5.7, "unit": "G/DL"},
      {"measurement": "URIC ACID", "setting": "[2]", "value": 1.35, "unit": "mg/dL"},
      {"measurement": "ABSOLUTE BASOPHIL", "setting": "[3]", "value": 0, "unit": "CELLS/uL"},
      {"measurement": "ABSOLUTE EOSINOPHIL", "setting": "[3]", "value": 125, "unit": "CELLS/uL"},
      {"measurement": "ABSOLUTE LYMPHOCYTE", "setting": "[3]", "value": 13809, "unit": "CELLS/uL"},
      {"measurement": "ABSOLUTE MONOCYTE", "setting": "[3]", "value": 351, "unit": "CELLS/uL"},
      {"measurement": "ABSOLUTE SEGMENTED NEUTROPHIL", "setting": "[3]", "value": 1581.67, "unit": "CELLS/uL"},
      {"measurement": "BASOPHIL", "setting": "[3]", "value": 0, "unit": "%"},
      {"measurement": "EOSINOPHIL", "setting": "[3]", "value": 0.67, "unit": "%"},
      {"measurement": "ERYTHROCYTE COUNT", "setting": "[3]", "value": 5.53, "unit": "x10E6/uL"},
      {"measurement": "HEMATOCRIT", "setting": "[3]", "value": 34.83, "unit": "%"},
      {"measurement": "LEUKOCYTE COUNT", "setting": "[3]", "value": 15.87, "unit": "x10E3/uL"},
      {"measurement": "LYMPHOCYTE", "setting": "[3]", "value": 87.5, "unit": "%"},
      {"measurement": "MEAN CORPUSCULAR HEMOGLOBIN", "setting": "[3]", "value": 25.25, "unit": "pg"},
      {"measurement": "MEAN CORPUSCULAR HEMOGLOBIN CONCENTRATION", "setting": "[3]", "value": 40.08, "unit": "G/DL"},
      {"measurement": "MEAN CORPUSCULAR VOLUME", "setting": "[3]", "value": 63.05, "unit": "fL"},
      {"measurement": "MONOCYTE", "setting": "[3]", "value": 2.17, "unit": "%"},
      {"measurement": "NEUTROPHIL", "setting": "[3]", "value": 9.67, "unit": "%"},
      {"measurement": "NUCLEATED RED BLOOD CELLS", "setting": "[3]", "value": "0 /100WBC"},
      {"measurement": "PLATELET COUNT", "setting": "[3]", "value": 1044, "unit": "x10E3/uL"},
      {"measurement": "ALANINE AMINOTRANSFERASE", "setting": "[4]", "value": 50.67, "unit": "u/L"},
      {"measurement": "ALKALINE PHOSPHATASE", "setting": "[4]", "value": 395, "unit": "u/L"},
      {"measurement": "ASPARTATE AMINOTRANSFERASE", "setting": "[4]", "value": 86, "unit": "u/L"},
      {"measurement": "CARBON DIOXIDE", "setting": "[4]", "value": 29.33, "unit": "mmol/L"},
      {"measurement": "CHOLESTEROL", "setting": "[4]", "value": 71.33, "unit": "mg/dL"},
      {"measurement": "CREATINE PHOSPHOKINASE", "setting": "[4]", "value": 323.17, "unit": "u/L"},
      {"measurement": "CREATININE", "setting": "[4]", "value": 0.18, "unit": "mg/dL"},
      {"measurement": "LACTATE DEHYDROGENASE", "setting": "[4]", "value": 389.5, "unit": "u/L"},
      {"measurement": "LIPASE", "setting": "[4]", "value": 9.83, "unit": "u/L"},
      {"measurement": "PHOSPHORUS", "setting": "[4]", "value": 11.35, "unit": "mg/dL"},
      {"measurement": "POTASSIUM", "setting": "[4]", "value": 6.39, "unit": "MEQ/L"},
      {"measurement": "TOTAL BILIRUBIN", "setting": "[4]", "value": 0.18, "unit": "mg/dL"},
      {"measurement": "TOTAL PROTEIN", "setting": "[4]", "value": 6.1, "unit": "G/DL"},
      {"measurement": "URIC ACID", "setting": "[4]", "value": 1.52, "unit": "mg/dL"},
      {"measurement": "ABSOLUTE BASOPHIL", "setting": "[5]", "value": 0, "unit": "CELLS/uL"},
      {"measurement": "ABSOLUTE EOSINOPHIL", "setting": "[5]", "value": 68, "unit": "CELLS/uL"},
      {"measurement": "ABSOLUTE LYMPHOCYTE", "setting": "[5]", "value": 13921, "unit": "CELLS/uL"},
      {"measurement": "ABSOLUTE MONOCYTE", "setting": "[5]", "value": 100.67, "unit": "CELLS/uL"},
      {"measurement": "ABSOLUTE SEGMENTED NEUTROPHIL", "setting": "[5]", "value": 710.33, "unit": "CELLS/uL"},
      {"measurement": "BASOPHIL", "setting": "[5]", "value": 0, "unit": "%"},
      {"measurement": "EOSINOPHIL", "setting": "[5]", "value": 0.33, "unit": "%"},
      {"measurement": "ERYTHROCYTE COUNT", "setting": "[5]", "value": 5.23, "unit": "x10E6/uL"},
      {"measurement": "HEMATOCRIT", "setting": "[5]", "value": 33.4, "unit": "%"},
      {"measurement": "HEMOGLOBIN", "setting": "[5]", "value": 13.6, "unit": "G/DL"},
      {"measurement": "LEUKOCYTE COUNT", "setting": "[5]", "value": 14.8, "unit": "x10E3/uL"},
      {"measurement": "LYMPHOCYTE", "setting": "[5]", "value": 94.33, "unit": "%"},
      {"measurement": "MEAN CORPUSCULAR HEMOGLOBIN", "setting": "[5]", "value": 26.03, "unit": "pg"},
      {"measurement": "MEAN CORPUSCULAR HEMOGLOBIN CONCENTRATION", "setting": "[5]", "value": 40.73, "unit": "G/DL"},
      {"measurement": "MEAN CORPUSCULAR VOLUME", "setting": "[5]", "value": 63.97, "unit": "fL"},
      {"measurement": "MONOCYTE", "setting": "[5]", "value": 0.67, "unit": "%"},
      {"measurement": "NEUTROPHIL", "setting": "[5]", "value": 4.67, "unit": "%"},
      {"measurement": "NUCLEATED RED BLOOD CELLS", "setting": "[5]", "value": "0 /100WBC"},
      {"measurement": "PLATELET COUNT", "setting": "[5]", "value": 1138.67, "unit": "x10E3/uL"},
      {"measurement": "ALANINE AMINOTRANSFERASE", "setting": "[6]", "value": 49, "unit": "u/L"},
      {"measurement": "ALKALINE PHOSPHATASE", "setting": "[6]", "value": 344.33, "unit": "u/L"},
      {"measurement": "ASPARTATE AMINOTRANSFERASE", "setting": "[6]", "value": 77, "unit": "u/L"},
      {"measurement": "BLOOD UREA NITROGEN", "setting": "[6]", "value": 12.33, "unit": "mg/dL"},
      {"measurement": "CHLORIDE", "setting": "[6]", "value": 100, "unit": "MEQ/L"},
      {"measurement": "CHOLESTEROL", "setting": "[6]", "value": 82.33, "unit": "mg/dL"},
      {"measurement": "CREATINE PHOSPHOKINASE", "setting": "[6]", "value": 236.33, "unit": "u/L"},
      {"measurement": "CREATININE", "setting": "[6]", "value": 0.13, "unit": "mg/dL"},
      {"measurement": "GLUCOSE", "setting": "[6]", "value": 155, "unit": "mg/dL"},
      {"measurement": "LACTATE DEHYDROGENASE", "setting": "[6]", "value": 196.33, "unit": "u/L"},
      {"measurement": "PHOSPHORUS", "setting": "[6]", "value": 11.57, "unit": "mg/dL"},
      {"measurement": "POTASSIUM", "setting": "[6]", "value": 6.96, "unit": "MEQ/L"}
    ]}
  ]
}
